ChEMBL document CHEMBL1201862, “PubChem BioAssay data set” (2004)
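96-well plates; 48 h exposure; 5 concentrations. Endpoints by linear interpolation between flanking doses. Not reached: highest tested concentration assigned. GI50: concentration for 50% inhibition of growth.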 Activity calls are given as the source filed them. No stated cut-off is given here; in the data, active = GI50 up to about 1.1 µM and inactive = higher.

How the values were obtained:
Assay in all cases: growth of human tumour cells (NCI), 48 h
[1] = test system: A549
[2] = test system: OVCAR-5
[3] = test system: SF-539
[4] = test system: CCRF-CEM
[5] = test system: SK-OV-3
[6] = test system: COLO 205
[7] = test system: TK-10
[8] = test system: NCI/ADR-RES
[9] = test system: MDA-N
[10] = test system: HOP-92
[11] = test system: HCT-15
[12] = test system: RXF 393
[13] = test system: NCI-H522
[14] = test system: ACHN
[15] = test system: OVCAR-4
[16] = test system: UO-31
[17] = test system: M14
[18] = test system: BT-549
[19] = test system: RPMI-8226

Row | SMILES | GI50 [1] | GI50 [2] | GI50 [3] | GI50 [4] | GI50 [5] | GI50 [6] | GI50 [7] | GI50 [8] | GI50 [9] | GI50 [10] | GI50 [11] [µM] | GI50 [12] | GI50 [13] | GI50 [14] | GI50 [15] | GI50 [16] | GI50 [17] | GI50 [18] | GI50 [19]
1 | CCOc1nc2c(N3CCCC3)nc(N3CCNCC3)nc2nc1NCc1ccccc1 | 1.74 µM (inactive) | 4.14 µM (inactive) | 1.52 µM (inactive) | 1.26 µM (inactive) | 1.57 µM (inactive) | 0.574 µM (active) | 1.9 µM (inactive) | 2.77 µM (inactive) | 1.11 µM (active) | 1.13 µM (inactive) | 1.63 | 1.03 µM (active) | 0.82 µM (active) | 1.58 µM (inactive) | 2.42 µM (inactive) | 1.32 µM (inactive) | 1.61 µM (inactive) | 1.61 µM (inactive) | 1.39 µM (inactive)
2 | CCCCCCCCC/C=C/C=C/C(=O)NCC(=O)NC1C(O)C(O)C(Nc2ncnc3[nH]cnc23)OC1C(O)CO (stereo unspecified) | 0.00397 µM (active) | 0.00174 µM (active) | 0.00448 µM (active) | 2.39 µM (inactive) | 0.001 µM (active) | 0.001 µM (active) | 0.00208 µM (active) | < 0.01 µM (active) | 0.0306 µM (active) | 0.00468 µM (active) | 0.362 | 0.00401 µM (active) | 0.00532 µM (active) | 0.00953 µM (active) | 0.00115 µM (active) | 0.00196 µM (active) | 0.0046 µM (active) | 0.023 µM (active) | 0.0018 µM (active)
3 | CCCC(=O)NC(Nc1ccc(S(=O)(=O)Nc2nc(C)cc(C)n2)cc1)(C(F)(F)F)C(F)(F)F | > 100 µM (inactive) | > 100 µM (inactive) | > 100 µM (inactive) | > 100 µM (inactive) | > 100 µM (inactive) | > 100 µM (inactive) | > 100 µM (inactive) | > 100 µM (inactive) | > 100 µM (inactive) | > 100 µM (inactive) | > 100 | > 100 µM (inactive) | > 100 µM (inactive) | > 100 µM (inactive) | > 100 µM (inactive) | > 100 µM (inactive) | > 100 µM (inactive) | > 100 µM (inactive) | > 100 µM (inactive)
4 | Clc1ccc(-c2nnc(-c3cccc4ccccc34)o2)cc1Cl | > 100 µM (inactive) | > 100 µM (inactive) | > 100 µM (inactive) | > 100 µM (inactive) | > 100 µM (inactive) | > 100 µM (inactive) | > 100 µM (inactive) | > 100 µM (inactive) | > 100 µM (inactive) | 17.6 µM (inactive) | > 100 | > 100 µM (inactive) | > 100 µM (inactive) | > 100 µM (inactive) | 98.4 µM (inactive) | > 100 µM (inactive) | > 100 µM (inactive) | > 100 µM (inactive) | > 100 µM (inactive)
